Data from patent publication US5994384A, “Pharmaceutical compositions of levo-enantiomers of medetomidine derivatives and their use” (Orion Corporation, priority 1995, dated 1999).

Tests used:
[1] = target: T1, adrenergic α-2 receptors (Homo sapiens, UniProt P08913); details: HEL cells; for antagonism of receptor activation to UK 14,304 by prior administration: intracellular Ca2+, 10 μM UK 14,304, 10 μM I-medetomidine, 1 μM rauwolscine
T1 sequence (P08913 1-465): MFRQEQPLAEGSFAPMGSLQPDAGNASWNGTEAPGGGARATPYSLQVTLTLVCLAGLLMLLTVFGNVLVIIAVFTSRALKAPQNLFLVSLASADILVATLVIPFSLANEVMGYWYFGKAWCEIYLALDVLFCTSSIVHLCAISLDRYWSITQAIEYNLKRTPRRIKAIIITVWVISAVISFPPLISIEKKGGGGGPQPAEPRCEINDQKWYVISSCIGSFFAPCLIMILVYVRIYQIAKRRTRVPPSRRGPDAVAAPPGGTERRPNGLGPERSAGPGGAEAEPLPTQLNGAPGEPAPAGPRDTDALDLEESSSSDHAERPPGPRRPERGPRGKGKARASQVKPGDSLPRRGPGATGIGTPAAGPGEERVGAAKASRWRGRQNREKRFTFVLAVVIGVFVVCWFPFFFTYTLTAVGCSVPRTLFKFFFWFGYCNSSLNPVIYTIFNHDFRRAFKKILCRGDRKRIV
Description: This system was used to screen different adrenergic α-2 receptor agonists for functional purposes.
The cells were loaded with fura-2/AM (Molecular probes, Junction City, USA). […] The dye responses were calibrated by sequential addition of digitonin and EGTA at the end of the experiment to obtain maximal and minimal fluorescence values, respectively.

[2] = target: T1, adrenergic α-2 receptors; experiment: cell-based; design: This cell line has been used as a model system for studying adrenergic α-2 receptors; endogenous in cells; host or cells: HEL (human erythroleukemia) cells
Protocol: The intracellular concentration of cAMP was measured by prelabelling the cells with [^3 H]adenine (Amersham, UK) as described by Jansson et al (1985, Eur. J. Pharmacol. […], 165). Separation of [^3 H]ATP and [^3 H]cAMP was achieved by the method of Salomon et al. (1974, Anal. Biochem. 58, 541). Conversion of cell-associated [^3 H]ATP to [^3 H]cAMP was expressed as a percentage of the total radioactivity and normalized to the percentage recovery of [^14 C]cAMP tracer.

Compound	antagonism of receptor activation to UK 14,304 by prior administration [1]	decrease of the concentration of Ca2+ level ([1]; 10 μM compound) [nM]	activation at 10 µM ([2]; HEL, read-out: further stimulation of forskolin stimulated cAMP production) [%]	increase in the production of cAMP ([2]; hel cells) [fold]
COC(=O)[C@H]1[C@H]2C[C@H]3c4[nH]c5ccccc5c4CCN3C[C@H]2CC[C@@H]1O [rauwolscine, reference compound]	did			
Cc1cccc([C@@H](C)c2cnc[nH]2)c1C [I-medetomidine, Levomedetomidine]	did not antagonise receptor activation to UK	-17 ± 2	42 ± 27	
C=C[C@@]1(C)CC(=O)[C@]2(O)[C@@]3(C)[C@@H](O)CCC(C)(C)[C@@H]3[C@H](O)[C@H](OC(C)=O)[C@@]2(C)O1 [forskolin, reference compound]				10
